According to BigSolDB 2.1:

CC(C)(O)P1(=O)OCC2(CO1)COP(=O)(C(C)(C)O)OC2 (stereo not given)
Conditions	solubility (mole fraction)
in acetic acid, 293.16 K	0.00691
in acetic acid, 298.15 K	0.0078
in acetic acid, 303.14 K	0.00907
in acetic acid, 307.96 K	0.0104
in acetic acid, 312.97 K	0.0114
in acetic acid, 318.05 K	0.0131
in acetic acid, 323.15 K	0.015
in acetic acid, 328.05 K	0.0173
in acetic acid, 333.04 K	0.0196
in acetic acid, 338.14 K	0.0231
in acetone, 293.6 K	0.000582
in acetone, 298.44 K	0.000762
in acetone, 303.35 K	0.00095
in acetone, 308.29 K	0.00124
in acetone, 313.27 K	0.00159
in acetone, 318.4 K	0.00194
in acetone, 323.3 K	0.00234
in ethanol, 294.15 K	0.00153
in ethanol, 297.63 K	0.00184
in ethanol, 303.05 K	0.00231
in ethanol, 307.95 K	0.00269
in ethanol, 313.15 K	0.00346
in ethanol, 318.16 K	0.00391
in ethanol, 322.95 K	0.00476
in ethanol, 327.84 K	0.00582
in ethanol, 332.93 K	0.00666
in ethanol, 337.94 K	0.00846
in methanol, 293.13 K	0.00585
in methanol, 298.15 K	0.00665
in methanol, 302.94 K	0.00751
in methanol, 307.75 K	0.00875
in methanol, 312.76 K	0.00998
in methanol, 317.95 K	0.0117
in methanol, 323.05 K	0.0136
in water, 293.13 K	0.00564
in water, 298.01 K	0.00585
in water, 303.15 K	0.00607
in water, 308.16 K	0.00631
in water, 313.05 K	0.00658
in water, 317.89 K	0.00692
in water, 323.05 K	0.00723
in water, 328.13 K	0.00754
in water, 332.95 K	0.00793
in water, 337.94 K	0.00826
in water, 342.86 K	0.00867
